Measured values from patent publication US5051417A, “Indolythiadiazines for treating heart failure” (Les Laboratoires Beecham S.A., priority 1988, dated 1991).
Structures can show the parent of a compound that is named as a salt.

System: canine cardiac myofibrillar Ca++-dependent Mg++-ATPase
Experiment: Measurement of myofibrillar Ca++-dependent Mg++-ATPase activity on canine cardiac myofibrils
Format: biochemical
Details: pH 7.0, 21° C.; for max (percent change of maximal ATPase activity): pCa=5.47
Protocol: 1. Measurement of myofibrillar Ca++-dependent Mq++-ATPase activity The effect on myofibrillar Ca++sensitivity and on maximal activity of myofibrillar Ca++-dependent Mg++-ATPase was determined on canine cardiac myofibrils. (a) Contractile protein preparation Cardiac myofibrils free of membrane contaminants were prepared from left ventricular tissue of dog hearts using a modification of the method described by SOLARO et al, Biochem. Biophys. Acta, 245, 259-262, (1971). Before centrifugation, the heart homogenate was filtered through gauze. After Triton X-100 treatments, the myofibrillar fraction was washed once by resuspension and centrifugation in 10 volumes of 1 mM EGTA, […], 30 mM imidazole, 2 mM MgCl2, pH 7.0. The pellet was then washed three times in 10 volumes of the same buffer without EGTA. Before the last centrifugation, the suspension of myofibrils was filtered through a stainless steel sieve with 0.25 mm meshes. Myofibrils were kept in pellet overnight. Before use, the pellet was suspended in a small amount of buffer, the protein concentration was determined by the method of BRADFORD M., Anal. Biochem., 1976, 72, 248 and adjusted in order to have a concentration between 6 and 7 mg/ml. (b) Myofibrillar ATPase activity Ca++-dependent myfibrillar ATPase activity was determined at 21° C., pH 7.0, by measuring the rate of release of inorganic phosphate. All assays were performed within 24hrs. of final purification, using the method described by SOLARO and […]., 51. 290-4,(1982). Reaction mixtures (4 ml) containing 0.6-0.7 mg/ml myofibrillar protein, 80mM KCl, 20 mM imidazole, 3 mM MgCl2, 1 mM EGTA, the desired amount of CaCl2, and the indicated concentration of drug or appropriate vehicle were preincubated for 6 min. prior to assay. The amount of CaCl2 was varied between 0 and 0.9 mM and the pCa (-log free Ca++) computed using 2.514×10^6 M^-1 as the apparent affinity of Ca++for EGTA at pH 7.0. Reactions were initiated by the addition of Na2 ATP to final concentration of 2 mM. After an incubation period of 12 min., reactions were quenched by the addition of an equal volume of ice-cold 10% trichloroacetic acid. The protein was pelleted by centrifugation (2000 g, 15 min.) and Pi was assayed in the supernatant fraction using a modification of the method described by LANZETTA et al, Anal. Biochem., 100, 95-97, (1979). The following solutions were prepared: (1) 3.7% ammonium heptamolybdate in 0.12 N H2 SO4 (2) 0.074% malachite green oxalate in 1% polyvinylic alcohol. The colour reagent was prepared by mixing an equal volume of solution (1) and (2) 15 min. before the assay. For the assay, 1,700 μl of 1% H2 SO4 and 1 ml of colour reagent were added to 100 μl of sample. Colour development occurred at room temperature for 30 min. and was quenched by the addition of 200 μl of 1M tri-potassium citrate. The absorbance was measured at 620 millimicrons. The effect of each compound, tested at the indicated concentration, on the relation between pCa and percent activation was determined taking 100% for the maximum ATPase activity obrained with vehicle alone. The effect on Ca++sensitivity was quantified by measuring the shift of the pCa giving 50% of the maximal control ATPase activity. The effect on maximal ATPase activity was expressed as the percent change of ATPase activity for pCa=5.47. Mean effects on myofibrillar ATPase activity were obtained from 1 to 5 preparations, (compounds tested at 2×10^-4 M).

Row | Structure (SMILES) | max (percent change of maximal ATPase activity) (30 μM) | pCa (shift of the pCa giving 50% of the maximal control ATPase activity; Ca++ sensitivity) (30 μM) | max (percent change of maximal ATPase activity) (10 μM) | pCa (shift of the pCa giving 50% of the maximal control ATPase activity; Ca++ sensitivity) (10 μM)
1 | CC1SC(=O)NN=C1c1ccc2c(c1)C(=Cc1cccnc1)C(=O)N2 (stereo not drawn) [Example 19, 1,3-Dihydro-5-(3,6-dihydro-6-methyl-2-oxo-2H-1,3,4-thiadiazin-5-yl)-3-(3-pyridylmethylene)-2H-indol-2-one] | -14 ± 7% | +0.23 ± 0.06 | – | –
2 | CC1SC(=O)NN=C1c1ccc2c(c1)C(=NNC(=O)c1cccnc1)C(=O)N2 (stereo not drawn) [Example 38, 3-Pyridinecarboxylic acid, 2-[2,3-dihydro-5-(3,6-dihydro-6-methyl-2-oxo-2H-1,3,4-thiadiazin-5-yl)-2-oxo-1H-indol-3-ylidenelhydrazide hydrochloride] | 34 ± 5% | +1.05 ± 0.06 | 34 ± 7% | 1.10 ± 0.02
3 | CC1SC(=O)NN=C1c1ccc2c(c1)C(=NN(C)c1ccccc1)C(=O)N2 (stereo not drawn) [Example 26, 5-(3,6-Dihydro-6-methyl-2-oxo-2H-1,3,4-thiadiazin-5-yl) -1H-indole-2,3-dione 3-(methylphenylhydrazone)] | 17 ± 2% | +0.65 ± 0.05 | – | –
4 | COC(=O)NN=C1C(=O)Nc2ccc(C3=NNC(=O)SC3C)cc21 (stereo not drawn) [Example 15, Methyl 2-[2,3-dihydro-5-(3,6-dihydro-6-methyl-2-oxo-2H -1,3,4-thiadiazin-5-yl)-2-oxo-1H-indol-3-ylidene]hydrazine carboxylate] | 2 ± 4% | +0.08 ± 0.04 | – | –
5 | CC1SC(=O)NN=C1c1ccc2c(c1)C(=NNc1c(F)c(F)c(F)c(F)c1F)C(=O)N2 (stereo not drawn) [Example 32, 5-(3,6-Dihydro-6-methyl-2-oxo-2H-1,3,4-thiadiazin-5-yl) -1H-indole-2,3-dione 3-(pentafluorophenylhydrazone)] | -1 ± 7% | +0.10 ± 0.04 | – | –
6 | CCOC(=O)CON=C1C(=O)Nc2ccc(C3=NNC(=O)SC3C)cc21 (stereo not drawn) [Example 23, Ethyl[[[2,3-dihydro-5-(3,6-dihydro-6-methyl-2-oxo-2H -1,3,4-thiadiazin-5-yl)-2-oxo-1H-indol-3-ylidene]amino]oxy]lacetate] | 8 ± 6% | +0.05 ± 0.02 | – | –
7 | CC1SC(=O)NN=C1c1ccc2c(c1)C(=Cc1ccccc1[N+](=O)[O-])C(=O)N2 (stereo not drawn) [Example 16, 1,3-Dihydro-5-(3,6-dihydro-6-methyl-2-oxo-2H-1,3,4-thiadiazin-5-yl)-3-(2-nitrophenylmethylene)-2H-indol-2-one] | 1 ± 4% | +0.17 ± 0.03 | – | –
8 | CC1SC(=O)N(C)N=C1c1ccc2c(c1)C(=NNc1ccccc1)C(=O)N2 (stereo not drawn) [Example 41] | 7 ± 2% | +0.11 ± 0.04 | – | –
9 | CC1SC(=O)NN=C1c1ccc2c(c1)C(=NNC1CCCCC1)C(=O)N2 (stereo not drawn) [Example 25, 5-(3,6-Dihydro-6-methyl-2-oxo-2H-1,3,4-thiadiazin-5-yl) -1H-indole-2,3-dione 3-(cyclohexylhydrazone)] | 22 ± 3% | +0.49 ± 0.06 | – | –

Results, then the compound that gave them:

Row | max (percent change of maximal ATPase activity) (30 μM) | pCa (shift of the pCa giving 50% of the maximal control ATPase activity; Ca++ sensitivity) (30 μM) | max (percent change of maximal ATPase activity) (10 μM) | pCa (shift of the pCa giving 50% of the maximal control ATPase activity; Ca++ sensitivity) (10 μM) | Structure (SMILES)
10 | 5 ± 2% | +0.40 ± 0.02 | – | – | CC1SC(=O)NN=C1c1ccc2c(c1)C(=NNc1ccc(C(=O)O)cc1)C(=O)N2 (stereo not drawn) [Example 34]
11 | 0 ± 1% | +0.05 ± 0.06 | – | – | CC1SC(=O)NN=C1c1ccc2c(c1)C(=NNc1ccccn1)C(=O)N2.Cl (stereo not drawn) [Example 35, 5-(3,6-Dihydro-6-methyl-2-oxo-2H-1,3,4-thiadiazin-5-yl)-1H-indole-2,3-dione 3-(2-pyridylhydrazone) monohydrochloride]
12 | 24 ± 5% | +0.92 ± 0.06 | – | – | CC1SC(=O)NN=C1c1ccc2c(c1)C(=NNc1cccnc1)C(=O)N2 (stereo not drawn) [Example 36, 5-(3,6-Dihydro-6-methyl-2-oxo-2H-1,3,4-thiadiazin-5-yl) -1H-indole-2,3-dione 3-(3-pyridylhydrazone)]
13 | 3 ± 1% | +0.37 ± 0.05 | – | – | CC#N.CC1SC(=O)NN=C1c1ccc2c(c1)C(=NNc1ccc(S(C)(=O)=O)cc1)C(=O)N2 (stereo not drawn) [Example 33]
14 | 21 ± 4% | +0.64 ± 0.1 | – | – | CC1SC(=O)NN=C1c1ccc2c(c1)C(=NNCc1ccccc1)C(=O)N2 (stereo not drawn) [Example 22, 5-(3,6-Dihydro-6-methyl-2-oxo-2H-1,3,4-thiadiazin-5-yl) -1H-indole-2,3-dione 3-[(phenylmethyl)hydrazone]]
15 | 20 ± 5% | +0.94 ± 0.05 | – | – | COc1ccc(NN=C2C(=O)Nc3ccc(C4=NNC(=O)SC4C)cc32)cc1 (stereo not drawn) [Example 28, 5-(3,6-Dihydro-6-methyl-2-oxo-2H-1,3,4-thiadiazin-5-yl) -1H-indole-2,3-dione 3-[(4-methoxy)phenylhydrazone]]
16 | -42 ± 7% | +1.30 ± 0.00 | 41 ± 2% | 1.07 ± 0.02 | Cc1ccc(NN=C2C(=O)Nc3ccc(C4=NNC(=O)SC4C)cc32)cc1 (stereo not drawn) [Example 21, 5-(3,6-Dihydro-6-methyl-2-oxo-2H-1,3,4-thiadiazin-5-yl) -1H-indole-2,3-dione 3-[(4-methyl)phenylhydrazone]]
17 | 3 ± 2% | +0.04 ± 0.02 | – | – | CC1SC(=O)NN=C1c1ccc2c(c1)C(=NNC(=O)c1ccncc1)C(=O)N2 (stereo not drawn) [Example 39]
18 | -9 ± 1% | +0.14 ± 0.03 | – | – | CC1SC(=O)NN=C1c1ccc2c(c1)C(=NNC(=O)c1ccccn1)C(=O)N2 (stereo not drawn) [Example 37]
19 | 11 ± 4% | +0.30 ± 0.02 | – | – | CC1SC(=O)NN=C1c1ccc2c(c1)C(=NNc1ccc(C(F)(F)F)cc1)C(=O)N2 (stereo not drawn) [Example 42, 5-(3,6-Dihydro-6-methyl-2-oxo-2H-1,3,4-thiadiazin-5-yl) -1H-indole-2,3-dione 3-[4-trifluoromethylphenylhydrazone]]
20 | 25 ± 4% | +0.78 ± 0.1 | – | – | CC1SC(=O)NN=C1c1ccc2c(c1)C(=NNc1ccc(Cl)cc1)C(=O)N2 (stereo not drawn) [Example 29, 5-(3,6-Dihydro-6-methyl-2-oxo-2H-1,3,4-thiadiazin-5-yl) -1H-indole-2,3-dione 3-[(4-chloro)phenylhydrazone]]
21 | -1 ± 0% | +0.05 ± 0.03 | – | – | CC1SC(=O)NN=C1c1ccc2c(c1)C(=NNc1ccc(Cl)c(Cl)c1)C(=O)N2 (stereo not drawn) [Example 27, 5-(3,6-Dihydro-6-methyl-2-oxo-2H-1,3,4-thiadiazin-5-yl) -1H-indole-2,3-dione 3-(3,4-dichloroohenyl)hydrazone]
22 | 28 ± 6% | +1.01 ± 0.07 | – | – | CC1SC(=O)NN=C1c1ccc2c(c1)C(=NNc1ccc(F)cc1)C(=O)N2 (stereo not drawn) [Example 30]
